Our source for the TGI values is PubChem BioAssay (NCI).

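Results reflect a 48-hour exposure of cells in 96-well plates to compound at five concentrations. TGI: concentration producing complete growth inhibition.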

Holding throughout (experiment): NCI anticancer screen, dose series, 48 h
The test system of assay [1] is A549 NSCLC.
The subject of assay [2] is ACHN renal.
In assay [3] the test system is LOX IMVI melanoma.
In assay [4] the test system is OVCAR-8 ovarian.
Assay [5] concerns SF-295 CNS.
In assay [6] the test system is SK-MEL-28 melanoma.
The test system of assay [7] is SK-MEL-5 melanoma.
For assay [8], the system named is SW-620 colon.
Assay [9] concerns K-562 leukemia.
Assay [10] deals with SK-MEL-2 melanoma.

In the case of `CC(C)NCCNC(=O)c1ccccc1Nc1c(Cl)cccc1Cl`, the TGI was determined as 33.9 µM in assay [1]; 31.2 µM in [2]; 20.6 µM in assay [3]; 34.4 µM in assay [4]; 28.5 µM in assay [5]; 28.1 µM in assay [6]. Also, the TGI in assay [7] turned out to be 17.3 µM; in assay [8], 30.4 µM.
As for `NC(=O)CC[C@H]1C(=O)N=C(N)N1C(=O)OCc1ccccc1`, the TGI in [2], in assay [9], in assay [3], in assay [4], in assay [5] and in [10] was more than 100 µM each time. Moreover, the TGI in assay [6], in [7] and in assay [8] was more than 100 µM in each case.
Take `COC(C[C@H]1CCCC[C@]1(O)/C(=C\CO[Si](C(C)C)(C(C)C)C(C)C)Sc1ccccc1)OC`: the TGI in assay [1] was more than 100 µM; in assay [2], more than 100 µM; in [9] it was more than 100 µM; in assay [3], 37.5 µM; in assay [4] it was more than 100 µM; in assay [5] it was more than 100 µM. The values for the TGI in assay [10], in [6] and in assay [7] were 49.9 µM, more than 100 µM and more than 100 µM, respectively.
For `COc1ccc(C(=O)/C=C/c2ccc(OCCCOc3ccc(/C=C/C(=O)c4ccc(OC)c(OC)c4)cc3)cc2)cc1OC`, the TGI in [1], in [2], in assay [9], in [4], in assay [5] and in assay [10] was more than 100 µM in each case. The TGI in assay [6], in [7] and in assay [8] was more than 100 µM throughout.
As to `COc1ccc(Nc2nc(NNC(=O)Cc3ccccc3)nc(NNC(=O)c3ccncc3)n2)cc1`, the TGI in [1], in assay [2], in assay [9], in assay [3], in assay [4] and in [5] was more than 10 µM throughout. The TGI in [6], in [7] and in assay [8] was more than 10 µM in each case.
Regarding `Oc1ccc(O)c(Sc2nnc(CCCCCCCCc3nnc(Sc4cc(O)ccc4O)o3)o2)c1`, the TGI in assay [1] was more than 100 µM; in assay [2], 85.9 µM; in assay [9], more than 100 µM; in assay [5], more than 100 µM; in assay [10], more than 100 µM; in assay [6], more than 100 µM. For the same compound, the TGI in assay [7] and in assay [8] was more than 100 µM throughout.
For the compound `CCCCNC(=S)Nc1nc(C(=O)NNC(=S)NCc2ccccc2)cs1`, the TGI in [1] is more than 100 µM; in assay [2], 78.5 µM; in assay [9] it was more than 100 µM; in assay [3], more than 100 µM; in [4] it was more than 100 µM; in assay [5] it was more than 100 µM. Moreover, the TGI in [10] was more than 100 µM; in assay [7], 70.2 µM; in assay [8], more than 100 µM.
Consider `O=C(O)Cn1ncn(NC(=O)Cc2ccccc2)c1=S`, for which the TGI in assay [1], in assay [2], in assay [9], in [3], in assay [4] and in [5] was more than 10 µM throughout. Moreover, the TGI in assay [6], in assay [7] and in assay [8] was more than 10 µM throughout.
`COc1cccc(OC/C(N=Cc2ccncc2)=N/NC(=O)c2ccncc2)c1`: the TGI in assay [1], in [2], in assay [9], in assay [3], in assay [4] and in assay [5] was more than 100 µM in each case. Also, the TGI in assay [10], in [6] and in assay [8] was more than 100 µM each time.
Consider `O=c1[nH]nc(N/N=C\c2ccc(Cl)cc2)c2ccccc12`, for which the TGI in assay [1] was found to be 41.6 µM; in assay [2], 37.8 µM; in assay [9], 81.1 µM; in assay [4] it was 54.8 µM; in assay [5], 34 µM; in assay [10] it was 37 µM. Also, the TGI is 56.9 µM in [6], 39.3 µM in assay [7] and more than 100 µM in [8].
Consider `Cn1cnc(/C=C/C#N)c1`, for which the TGI in assay [1], in assay [2], in [9], in assay [4], in assay [5] and in assay [10] was more than 100 µM in each case. The TGI in assay [6], in assay [7] and in [8] was more than 100 µM each time.
Turning to `COC(C/C=C\C=C\CC/C=C/CC(C)/C=C/C(=C\C(=O)O)CC(=O)O)/C(C)=C\C=C(/C)C(=O)O` (stereo not given), the TGI in [1], in [5], in assay [10], in assay [6], in assay [7] and in assay [8] was more than 100 µM in each case.
As for `CCOc1ccccc1N=NC1C(=O)N(C(=O)CC(=O)Nc2ccccc2OC)N=C1C` (stereo not given), the TGI was more than 100 µM in [1]; more than 100 µM in assay [2]; more than 100 µM in [3]; more than 100 µM in assay [4]; 55.6 µM in assay [5]; more than 100 µM in assay [10]. For the same compound, the TGI in assay [6], in [7] and in assay [8] was more than 100 µM throughout.
In the case of `COc1ccc(OC)c(-c2cn3c(n2)sc2ccccc23)c1`, the TGI in [1], in assay [2], in [9], in [3], in assay [4] and in assay [5] was more than 100 µM in each case. The TGI in [10], in [7] and in assay [8] was more than 100 µM in each case.
For the compound `Cc1sc2nc3n(sc4nc5sc(C)c(C)c5c(=O)n43)c(=O)c2c1C`, the TGI in assay [1], in assay [9], in [3], in assay [4], in assay [5] and in assay [10] was more than 100 µM throughout. Moreover, the TGI in assay [6], in [7] and in assay [8] was more than 100 µM each time.
